Data as given in patent US10266482B2, “Long-term memory inducing agent” (NATIONAL UNIVERSITY CORPORATION TOKYO MEDICAL AND DENTAL …, priority 2017, dated 2019).

Tests used:
young crickets [1] = test: Olfactory associative learning test in young crickets (single-time training, memory a day after); assay type: in vivo, Gryllus bimaculatus
Experimental: Male crickets about one week old (young) or three week old (aged) following molting into adult forms were used. Each of the crickets was placed into a 100 ml beaker three days before the experiment, and deprived of water for 2-3 days to enhance the desire of taking water. As the feed, about 10 pieces of insect feed were placed into the beaker.
A 1-ml syringe was used for smell and reward associative conditioning upon learning/training. The syringe contained water as the reward while a piece of paper (3 mm×3 mm) perfumed with peppermint essence was pierced into the needle to about 1 cm from the tip thereof. In this learning/training, the filter paper on the needle was brought near the antennae of the cricket to allow it to smell for 3 seconds and then a drop of water was put out from the tip of the needle and applied to the mouth of the cricket. When the associative conditioning was conducted for four times, the conditionings were conducted at intervals of 5 minutes.
Smell preference was examined by placing each cricket into a test arena. The arena consisted of a “standby chamber” and a “test chamber”. The floor of the “test chamber” had two holes each with a diameter of 4 cm which were communicated with two smell sources. The smell source was a plastic pot containing filter paper perfumed with essence of a smell (peppermint or vanilla) and covered with a gauze lid. In the preference test, each cricket was placed into the test chamber and allowed to walk freely for 4 minutes to search for the two smell sources. Two minutes after the start of the test, a rotary board having the smell sources was rotated to reverse the positions of the vanilla and the peppermint smells. During the test, the time the cricket spent placing its mouth to the gauze of the smell source was measured as a visiting time to the smell source, and the ratio of the visiting times of the two types of smells (PI value: preference index) was calculated according to the following formula to assess the relative preference to the mint smell. PI value=Tp/(Tp+Tv)×100 • Tp: Searching time for smell associated with the reward (peppermint) • Tv: Searching time for smell not associated with the reward (vanilla)
If the preferences for the two smells are equivalent, PI will be 50. Since crickets inherently prefer vanilla smell over peppermint smell, an average PI value prior to the learning/training is usually 25-35, The preference test was conducted before and after the learning/training to examine whether preference for the smell changes due to the learning/training.
As drugs, melatonin, N(1)-acetyl-N(2)-formyl-5-methoxykynuramine (AFMK), N(1)-acetyl-5-methoxykynuramine (AMK), 6-Hydroxymelatonin (6-HM), L-kynurenine, kynuramine, 8-Bromoguanoine 3′,5′-cyclic monophosphate sodium salt (8 br-cGMP) and cycloheximide (CHX) were used. Melatonin, 6-HM, kynurenine, kynuramine and 8br-cGMP were purchased from SIGMA Aldrich, AFMK was purchased from Cayman Chemical, AMK was purchased from Toronto Research Chemicals and CHX was purchased from Wako Pure Chemical Industries. The drugs other than 8br-cGMP and CHX were first dissolved in ethanol and then diluted with physiological saline for crickets to the respective concentrations. In the administration experiment, 3 μl was administered using a 10-μl syringe to the brain via an aperture opened through a simple eye of the head.
PI values were tested before the training and a day after the training in the same group by a Wilcoxon's-test.

aged mice = test: Object recognition test (ORT) with aged mice; assay type: in vivo, ICR mice; conditions: for long-term memory formation (DI value, test trial 24 hours later): aged (14-month-old) mice
Experimental: 2-month-old male ICR mice (young mice) and 14-month-old male ICR mice (aged mice) were used. The rearing room was kept at 22° C. at cycles of 12 hours of light period/12 hours of dark period, and feed and drinking water were given freely. All of the experiments were conducted during the latter 6 hours of the light period.
N(1)-acetyl-5-methoxykynuramine (AMK) was used as a drug. AMK was diluted with physiological saline for the administration experiment with the aged mouse, and a dosage of 0.1 mg/kg bw or 1 mg/kg bw was intraperitoneally administered.
For an object recognition test, two each of two types of objects (height 6 cm×diameter 4 cm, height 7 cm×diameter 7 cm) and an observation box (height 30 cm×width 40 cm×depth 30 cm) were used. This test consisted of an acquisition trial and a test trial, and the experimental individuals were allowed to explore in the observation box 5 minutes a day for 3 days immediately before the experiment in order to adapt the experimental individuals to the observation box. In the acquisition trial, two identical objects were presented to the observation box and the experimental individuals were allowed to search for a minute. When the acquisition trials were conducted for more than one time, the acquisition trials were conducted at one-hour intervals. The test trial was conducted 24 hours or 4 days after the last acquisition trial. In the test trials, one of the two identical objects presented in the acquisition trials was exchanged with a different object (new object), and the experimental individuals were allowed to search for 5 minutes. During the test trials, the time that took each of the mice to search for the object was measured, and the ratio of the searching time of the two objects (DI value: discrimination index) was calculated according to the following formula to examine the relative cognitive levels to the new object. DI value (%)=Tn×100/(Tf+Tn)
One-sample t-test was employed to compare the DI value with the expected value (50%).

young mice = test: Object recognition test for young mice, AMK application to the scalp; assay type: in vivo, ICR mice; conditions: 1 μl of 0.4 mg/μl in dimethyl sulfoxide applied to scalp 30 minutes before one 3-minute acquisition trial
Experimental: Two-month-old male ICR mice (young mice) were used. The rearing room was kept at 22° C. at cycles of 12 hours of light period/12 hours of dark period, and feed and drinking water were given freely. All of the experiments were conducted during the latter 6 hours of the light period.
N(1)-acetyl-5-methoxykynuramine (AMK) was used as a drug. AMK was diluted with dimethyl sulfoxide to result a concentration of 0.4 mg/μl. One μl of the diluent was applied to each individual.
In order to examine the effect of AMK application to the skin, the scalps of the mice were depilated the day before the acquisition trial, AMK or dimethyl sulfoxide as a solvent was applied to 1 cm^2 of the scalp under inhalation anesthesia with isoflurane (Pfizer) 30 minutes before the acquisition trial, left for 5 minute to dry, and then the applied surface was protected with patchProtect (SmartPractice).
Test was conducted in the same manner as “5.3 Object recognition test” in Example 5 except that searching time was 3 minutes in the acquisition trial.
Processing was conducted in the same manner as “5.4 Statistical processing” in Example 5.

young crickets [2] = test: Olfactory associative learning test in young crickets (single-time training, memory a day after); assay type: in vivo, Gryllus bimaculatus; remark: listed apart in the source

SMILES: COc1ccc(N)c(C(=O)CCNC(C)=O)c1 [Compound 1, N-[3-(2-amino-5-methoxyphenyl)-3-oxopropyl]-acetamide]
- long-term memory formation a day after the training (young crickets [1]; 8 nM, 3 μl to the brain, 20 minutes after single-time training): not
- sufficient concentration relative to the concentration of melatonin (young crickets [1]; 40 nM AMK versus 5 μM melatonin): 1/125
- long-term memory formation a day after the training (young crickets [1]; 40 nM, 3 μl to the brain, 20 minutes after single-time training): formed
- long-term memory formation a day after the training (young crickets [1]; 0.2 μM, 3 μl to the brain, 20 minutes after single-time training): formed
- long-term memory formation a day after the training (young crickets [1]; 1 μM, 3 μl to the brain, 20 minutes after single-time training): formed
- long-term memory formation a day after the training (young crickets [1]; 1 μM, 3 μl, administered between 20 minutes and 80 minutes after single-time training): a long-term memory was formed
- long-term memory formation a day after the training (young crickets [1]; 5 μM, 3 μl to the brain, 20 minutes after single-time training, listed as AMK): long-term memories were formed
- long-term memory formation a day after the training (young crickets [1]; 5 μM, 3 μl to the brain, 20 minutes before single-time training): long-term memories were formed
- administration concentration sufficient to form long-term memory (young crickets [1]; 3 μl to the brain 20 minutes after single-time training): 40 nM
- timing of administration sufficient to form long-term memory (young crickets [1]; time following the single-time training, melatonin and AFMK 5 μM, AMK 1 μM): up to 80 minutes
- long-term memory formation (DI value, test trial 24 hours later) (aged mice; 0.1 mg/kg bw i.p. 15 minutes after two one-minute acquisition trials): a long-term memory was formed
- long-term memory formation (DI value, test trial 24 hours later) (aged mice; 1 mg/kg bw i.p. 15 minutes after one one-minute acquisition trial): a long-term memory was formed
- duration of induced long-term memory (aged mice; aged mice, 1 mg/kg bw i.p. 15 minutes after one acquisition trial, test trials 1 and 4 days later): at least 4 days
- long-term memory formation (DI value, test trial 24 hours later) (young mice): a long-term memory was formed
- amount in 1 g of the food per kg of body weight (young crickets [2]; based on the results from ingesting 1 μM for 10 μl): ≥ 2.32 µg
- long-term memory formation a day after the training by oral administration (young crickets [2]; drinking 10 μl of aqueous solution (5 μM) 5 minutes after single-time training): long-term memory was formed
